Earlier results in patent publication US20240401150A1, “PANCREATIC DUCTAL ADENOCARCINOMA SIGNATURES AND USES THEREOF” (The Broad Institute, Inc., priority 2022, published 2024).

Assays:
CXCR4 = CXCR4 (Homo sapiens, UniProt P61073); conditions: literature (ref 133)
[1] = tested on: intra-tumoral cytotoxic T cells; conditions: previously identified (refs 20, 61)

CXCR4, sequence (P61073 whole entry): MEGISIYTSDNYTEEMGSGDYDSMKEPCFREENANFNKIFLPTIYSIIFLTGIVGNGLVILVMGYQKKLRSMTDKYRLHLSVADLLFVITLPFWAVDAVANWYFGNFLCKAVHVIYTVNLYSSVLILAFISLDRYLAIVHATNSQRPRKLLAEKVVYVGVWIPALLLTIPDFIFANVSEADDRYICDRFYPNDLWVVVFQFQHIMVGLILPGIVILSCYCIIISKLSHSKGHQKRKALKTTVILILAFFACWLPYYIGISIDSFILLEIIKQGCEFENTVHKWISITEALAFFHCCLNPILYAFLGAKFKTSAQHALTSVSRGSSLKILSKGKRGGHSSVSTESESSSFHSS

effect of clinical inhibition of CXCR4 (CXCR4) | Structure (SMILES) | intra-tumoral cytotoxic T cell activity [1]
integrated immune response^133 | c1cc(CN2CCCNCCNCCCNCC2)ccc1CN1CCCNCCNCCCNCC1 [AMD3100] | 
 | CCCCc1nc(Cl)c(CO)n1Cc1ccc(-c2ccccc2-c2nn[nH]n2)cc1 [losartan] | increase
